In US10035760B2, “Inhibitors of human immunodeficiency virus replication” (priority 2013, dated 2018):
Where two headings read alike, the source gives them in different places.

Test system: recombinant NL4-3 virus (Renilla luciferase) in MT-2 cells
Test: HIV cell culture assay (antiviral activity, luciferase readout in infected MT-2 cells)
Format: cell-based
Details: Renilla
Method in brief: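 Nef-deleted NL4-3 carrying Renilla luciferase, produced by 293T transfection, used to infect MT-2 cells for 4–5 days with serial compound dilutions. Live-cell luciferase signal read as infection marker; EC50 from exponential median-effect equation.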

[1] = NL43, read-out: Activity, antiviral activity class, recombinant NL4-3 Renilla luciferase virus in MT-2 cells
[2] = NL43, recombinant NL4-3 Renilla luciferase virus in MT-2 cells

SMILES	EC50 [1] [nM]	EC50 [2] [nM]
CCN(C(=O)[C@H](Cc1ccccc1)NC(=O)NS(=O)(=O)c1ccc2c(ccn2CC)c1)c1ccc(OC)cc1 [Example 203, (S)—N-ethyl-2-(3-((1-ethyl-1H-indol-5-yl)sulfonyl)ureido)-N-(4-methoxyphenyl)-3-phenylpropanamide]	100 to 1000	
CCN(C(=O)[C@H](Cc1ccccc1)NC(=O)NS(=O)(=O)c1cccc(-c2ccco2)c1)c1ccc(OC)cc1 [Example 149]	100 to 1000	
COc1ccccc1N(C)C(=O)[C@H](Cc1ccccc1)NC(=O)NS(=O)(=O)c1ccccc1C [Example 165, (S)—N-(2-methoxyphenyl)-N-methyl-3-phenyl-2-(3-(o-tolylsulfonyl)ureido)propanamide]	1000 to 10000	
COc1ncc(-c2ccccc2S(=O)(=O)NC(=O)N[C@@H](Cc2ccccc2)C(=O)N(C)c2ccc3c(c2)OCO3)cn1 [Example 130, (S)—N-(benzo[d][1,3]dioxol-5-yl)-2-(3-((2-(2-methoxypyrimidin-5-yl)phenyl)sulfonyl)ureido)-N-methyl-3-phenylpropanamide]	1000 to 10000	
C=CCCOc1cccc(C[C@H](NC(=O)NS(=O)(=O)c2ccccc2C=C)C(=O)N(C)c2ccc(OC)cc2)c1 [Example 213, (S)-3-(3-(but-3-en-1-yloxy)phenyl)-N-(4-methoxyphenyl)-N-methyl-2-(3-((2-vinylphenyl)sulfonyl)ureido)propanamide]	1000 to 10000	5070
COC(=O)c1cccc(C[C@H](NC(=O)NS(=O)(=O)c2ccccc2C)C(=O)N(C)c2ccc3c(c2)OCO3)c1 [Example 64, (S)-methyl 3-(3-(benzo[d][1,3]dioxol-5-yl(methyl)amino)-3-oxo-2-(3-(o-tolylsulfonyl)ureido)propyl)benzoate]	1000 to 10000	
Cc1ccccc1S(=O)(=O)NC(=O)N[C@@H](Cc1ccccc1)C(=O)N(C)c1ccc2c(c1)CCCO2 [Example CA-79, (S)—N-(chroman-6-yl)-N-methyl-3-phenyl-2-(3-(o-tolylsulfonyl)ureido)propanamide]	< 100	
Cc1ccccc1S(=O)(=O)NC(=O)N[C@@H](Cc1cccc(S(=O)(=O)N2CCOCC2)c1)C(=O)N(C)c1ccc2c(c1)OCO2 [Example 81, (S)—N-(benzo[d][1,3]dioxol-5-yl)-N-methyl-3-(3-(morpholinosulfonyl)phenyl)-2-(3-(o-tolylsulfonyl)ureido)propanamide]	10000 to 100000	
CC(C)S(=O)(=O)NC(=O)N[C@@H](Cc1ccccc1)C(=O)N(C)c1ccc2c(c1)OCO2 [Example 43, (S)—N-(benzo[d][1,3]dioxol-5-yl)-2-(3-(isopropylsulfonyl)ureido)-N-methyl-3-phenylpropanamide]	100 to 1000	
CCN(C(=O)[C@H](Cc1ccccc1)NC(=O)NS(=O)(=O)c1cccc(-c2cc3c(OC)cccc3[nH]2)c1)c1ccc(OC)cc1 [Example 154, (S)—N-ethyl-2-(3-((3-(4-methoxy-1H-indol-2-yl)phenyl)sulfonyl)ureido)-N-(4-methoxyphenyl)-3-phenylpropanamide]	100 to 1000	670
CCN(C(=O)[C@H](Cc1ccccc1)NC(=O)NS(=O)(=O)c1cc(-c2ccoc2)ccc1C)c1ccc(OC)cc1 [Example 123, (S)—N-ethyl-2-(3-((5-(furan-3-yl)-2-methylphenyl)sulfonyl)ureido)-N-(4-methoxyphenyl)-3-phenylpropanamide]	100 to 1000	660
CCN(C(=O)[C@H](Cc1ccccc1)NC(=O)NS(=O)(=O)c1ccccc1F)c1ccc(OC)cc1 [Example 117, (S)—N-ethyl-2-(3-((2-fluorophenyl)sulfonyl)ureido)-N-(4-methoxyphenyl)-3-phenylpropanamide]	< 100	
COc1ccc(S(=O)(=O)NC(=O)N[C@@H](Cc2ccccc2)C(=O)N(C)c2ccc3c(c2)OCO3)cc1 [Example 8, (S)—N-(benzo[d][1,3]dioxol-5-yl)-2-(3-((4-methoxyphenyl)sulfonyl)ureido)-N-methyl-3-phenylpropanamide]	100 to 1000	180
Cc1ccccc1S(=O)(=O)NC(=O)N[C@@H](Cc1ccccc1)C(=O)N(C)c1ccc2scnc2c1 [Example CA-88, (S)—N-(benzo[d]thiazol-5-yl)-N-methyl-3-phenyl-2-(3-(o-tolylsulfonyl)ureido)propanamide]	< 100	60
CCN(C(=O)[C@H](Cc1ccccc1)NC(=O)NS(=O)(=O)c1ccccc1C)c1ccc2ccccc2c1 [Example 177, (S)—N-ethyl-N-(naphthalen-2-yl)-3-phenyl-2-(3-(o-tolylsulfonyl)ureido)propanamide]	< 100	
COc1ccc(N(C)C(=O)[C@H](Cc2ccccc2)NC(=O)NS(=O)(=O)c2ccccc2C)cc1 [Example 167, (S)—N-(4-methoxyphenyl)-N-methyl-3-phenyl-2-(3-(o-tolylsulfonyl)ureido)propanamide]	< 100	
CCN(C(=O)[C@H](Cc1ccccc1)NC(=O)NS(=O)(=O)c1ccccc1C)c1ccc(OC)c(C)c1 [Example CA-78, (S)—N-ethyl-N-(4-methoxy-3-methylphenyl)-3-phenyl-2-(3-(o-tolylsulfonyl)ureido)propanamide]	100 to 1000	120

SMILES	EC50 [1] [nM]	EC50 [2] [nM]
Cc1ccccc1S(=O)(=O)NC(=O)N[C@@H](Cc1ccccc1)C(=O)N(C)c1ccc2cc[nH]c(=O)c2c1 [Example CA-99, (S)—N-methyl-N-(1-oxo-1,2-dihydroisoquinolin-7-yl)-3-phenyl-2-(3-(o-tolylsulfonyl)ureido)propanamide]	1000 to 10000	
Cc1ccccc1S(=O)(=O)NC(=O)N[C@@H](Cc1ccc(Cl)c(Cl)c1)C(=O)N(C)c1ccc2c(c1)OCO2 [Example 59, (S)—N-(benzo[d][1,3]dioxol-5-yl)-3-(3,4-dichlorophenyl)-N-methyl-2-(3-(o-tolylsulfonyl)ureido)propanamide]	1000 to 10000	1040
Cc1ccc(S(=O)(=O)NC(=O)N[C@@H](Cc2ccccc2)C(=O)N(C)c2ccc3c(c2)OCO3)cc1 [Example 5, (S)—N-(benzo[d][1,3]dioxol-5-yl)-N-methyl-3-phenyl-2-(3-tosylureido)propanamide]	100 to 1000	
Cc1ccccc1S(=O)(=O)NC(=O)N[C@@H](Cc1cc(F)cc(F)c1)C(=O)N(C)c1cccc2cnccc12 [Example CA-110, (S)-3-(3,5-difluorophenyl)-N-(isoquinolin-5-yl)-N-methyl-2-(3-(o-tolylsulfonyl)ureido)propanamide]	100 to 1000	
CCN(C(=O)[C@H](Cc1ccccc1)NC(=O)NS(=O)(=O)c1ccccc1C)c1ccc(O)c(NC=O)c1 [Example CA-89, (S)—N-ethyl-N-(3-formamido-4-hydroxyphenyl)-3-phenyl-2-(3-(o-tolylsulfonyl)ureido)propanamide]	100 to 1000	600
CCN(C(=O)[C@H](Cc1ccccc1)NC(=O)NS(=O)(=O)c1ccccc1C)c1ccc2ncccc2c1 [Example CA-80, (S)—N-ethyl-3-phenyl-N-(quinolin-6-yl)-2-(3-(o-tolylsulfonyl)ureido)propanamide]	< 100	30
Cc1ccccc1N(C)C(=O)[C@H](Cc1ccccc1)NC(=O)NS(=O)(=O)c1ccccc1C [Example CA-69, (S)—N-methyl-3-phenyl-N-(o-tolyl)-2-(3-(o-tolylsulfonyl)ureido)propanamide]	1000 to 10000	
Cc1ccccc1S(=O)(=O)NC(=O)N[C@@H](Cc1ccccc1)C(=O)N(C)c1ccc2c(c1)OCO2 [Example 2, (S)—N-(benzo[d][1,3]dioxol-5-yl)-N-methyl-3-phenyl-2-(3-(o-tolylsulfonyl)ureido)propanamide]	< 100	70
COc1ccc(N(C)C(=O)[C@H](Cn2cncn2)NC(=O)NS(=O)(=O)c2ccccc2C)cc1 [Example 193, (S)—N-(4-methoxyphenyl)-N-methyl-2-(3-(o-tolylsulfonyl)ureido)-3-(1H-1,2,4-triazol-1-yl)propanamide]		> 100000
CCN(C(=O)[C@H](Cc1ccccc1)NC(=O)NS(=O)(=O)c1ccccc1Br)c1ccc(OC)cc1 [Example 201, (S)-2-(3-((2-bromophenyl)sulfonyl)ureido)-N-ethyl-N-(4-methoxyphenyl)-3-phenylpropanamide]	< 100	
CCc1cccc(S(=O)(=O)NC(=O)N[C@@H](Cc2ccccc2)C(=O)N(CC)c2ccc(OC)cc2)c1 [Example 141, (S)—N-ethyl-2-(3-((3-ethylphenyl)sulfonyl)ureido)-N-(4-methoxyphenyl)-3-phenylpropanamide]	< 100	
CCN(C(=O)[C@H](Cc1ccccc1)NC(=O)NS(=O)(=O)c1ccccc1C)c1ccc(OC)cc1 [Example 184, (S)—N-ethyl-N-(4-methoxyphenyl)-3-phenyl-2-(3-(o-tolylsulfonyl)ureido)propanamide]	< 100	
CN(C(=O)[C@H](Cc1ccccc1)NC(=O)NS(=O)(=O)C1(C)CC1)c1ccc2c(c1)OCO2 [Example 4, (S)—N-(benzo[d][1,3]dioxol-5-yl)-N-methyl-2-(3-((1-methylcyclopropyl)sulfonyl)ureido)-3-phenylpropanamide]	1000 to 10000	1110
Cc1ccccc1S(=O)(=O)NC(=O)N[C@@H](Cc1ccccc1)C(=O)N(C)c1ccc(Cl)cc1 [Example 164, (S)—N-(4-chlorophenyl)-N-methyl-3-phenyl-2-(3-(o-tolylsulfonyl)ureido)propanamide]	100 to 1000	
CN(C(=O)[C@H](Cc1ccccc1)NC(=O)NS(=O)(=O)C1CC1)c1ccc2c(c1)OCO2 [Example 42, (S)—N-(benzo[d][1,3]dioxol-5-yl)-2-(3-(cyclopropylsulfonyl)ureido)-N-methyl-3-phenylpropanamide]	100 to 1000	480
COc1ccc(OC)c(S(=O)(=O)NC(=O)N[C@@H](Cc2ccccc2)C(=O)N(C)c2ccc3c(c2)OCO3)c1 [Example 30, (S)—N-(benzo[d][1,3]dioxol-5-yl)-2-(3-((2,5-dimethoxyphenyl)sulfonyl)ureido)-N-methyl-3-phenylpropanamide]	< 100	
